For 39 molecules, logP results are on record in the OPERA property sets (Mansouri et al. 2018).

SMILES strings stand for the structures.

Broadly, the logP is a log measure of how a compound divides between an organic and an aqueous phase. Read a low logP as a more hydrophilic compound. Consider `O=C(O)CCC1=NS(=O)(=O)c2cc(Br)ccc2N1`, for which the logP was determined as 0.93. With `Cc1ccc2c(c1)NC(SCC(=O)O)=NS2(=O)=O`, the logP stood at 0.7.

`O=C(O)CCSC1=NS(=O)(=O)c2cc(Cl)cc(Cl)c2N1` returned a logP of 1.79.

The molecule `COc1ccc2c(c1)NC(SCC(=O)O)=NS2(=O)=O` gave a logP of 0.37. For the molecule `O=C(O)CSC1=NS(=O)(=O)c2ccc(C(F)(F)F)cc2N1`, the logP worked out at 1.62. In turn, `O=C(O)CCCC1=NS(=O)(=O)c2cc(Cl)c(Cl)cc2N1` had a logP of 1.8. As to `O=C(O)CCC1=NS(=O)(=O)c2ccc(C(F)(F)F)cc2N1`, the logP turned out to be 1.3. With `COc1ccc2c(c1)NC(CCCC(=O)O)=NS2(=O)=O`, the logP turned out to be 0.12. `O=C(O)CCSC1=NS(=O)(=O)c2cc(Br)cc(Br)c2N1`: the logP is 2.04. In the case of `Cc1ccc2c(c1)NC(CCC(=O)O)=NS2(=O)=O`, the log partition coefficient (logP) was 0.16. The value for `O=C(O)CCCC1=NS(=O)(=O)c2cc(Cl)ccc2N1` was 0.83; that for `O=C(O)CSC1=NS(=O)(=O)c2cc(Br)ccc2N1` was 0.92. Then `Cc1ccc2c(c1)NC(SCCC(=O)O)=NS2(=O)=O`, with 1.16. The molecule `O=C(O)CSC1=NS(=O)(=O)c2ccc(Cl)c(Cl)c2N1` came in with a logP of 1.1. Then `O=C(O)CCCC1=NS(=O)(=O)c2cc(Br)ccc2N1`, with 1.02; and `COc1ccc2c(c1)NC(SCCC(=O)O)=NS2(=O)=O`, with 0.96. In turn, `O=C(O)CCSC1=NS(=O)(=O)c2cc(Br)ccc2N1` had a logP of 1.77. In the case of `O=C(O)CCC1=NS(=O)(=O)c2cc(Cl)cc(Cl)c2N1`, the logP was 1.04. Take `O=C(O)CCSC1=NS(=O)(=O)c2cc(Cl)ccc2N1`: the log partition coefficient (logP) amounted to 1.43. In turn, `O=C(O)CCSC1=NS(=O)(=O)c2cc(Cl)c(Cl)cc2N1` gave a logP of 1.81.

For the molecule `O=C(O)CCCC1=NS(=O)(=O)c2cc(Br)cc(Br)c2N1`, the logP amounted to 1.51.

For `O=C(O)CSC1=NS(=O)(=O)c2ccc(Cl)cc2N1`, the logP stood at 0.82. The value for `Cc1ccc2c(c1)NC(CCCC(=O)O)=NS2(=O)=O` was 0.33; that for `O=C(O)CCSC1=NS(=O)(=O)c2ccccc2N1` was 0.66.

In the case of `COc1ccc2c(c1)NC(CCC(=O)O)=NS2(=O)=O`, the logP worked out at 0.18.

`O=C(O)CCCC1=NS(=O)(=O)c2ccc(C(F)(F)F)cc2N1`: the logP is 1.24. As to `O=C(O)CCSC1=NS(=O)(=O)c2ccc(Cl)cc2N1`, the logP was found to be 1.6. The value for `O=C(O)CCC1=NS(=O)(=O)c2ccc(Cl)cc2N1` was 0.72; that for `O=C(O)CSC1=NS(=O)(=O)c2ccccc2N1` was 0.18; that for `O=C(O)CSC1=NS(=O)(=O)c2cc(Br)cc(Br)c2N1` was 1.16. Then `O=C(O)CCCC1=NS(=O)(=O)c2cc(Cl)cc(Cl)c2N1`, with 1.22; and `O=C(O)CCSC1=NS(=O)(=O)c2ccc(C(F)(F)F)cc2N1`, with 1.96.

Molecule `O=C(O)CCC1=NS(=O)(=O)c2cc(Cl)c(Cl)cc2N1` returned a log partition coefficient (logP) of 1.5. `O=C(O)CSC1=NS(=O)(=O)c2cc(Cl)ccc2N1` came in with a logP of 0.72. Then `O=C(O)CCC1=NS(=O)(=O)c2cc(Cl)ccc2N1`, with 0.69. Regarding `O=C(O)CSC1=NS(=O)(=O)c2cc(Cl)cc(Cl)c2N1`, the logP was found to be 1.09. On to `O=C(O)CCC1=NS(=O)(=O)c2cc(Br)cc(Br)c2N1`, for which the logP was determined as 1.35. `O=C(O)CCC1=NS(=O)(=O)c2ccccc2N1` yielded a logP of -0.18. For the molecule `O=C(O)CCCC1=NS(=O)(=O)c2ccc(Cl)cc2N1`, the log partition coefficient (logP) turned out to be 0.83.
